System: NIH/3T3 cells
Assay: Mitogenic assay on FGF-2-responsive cells (heparin control test, CellTiter AQueous One, OD 490 nm)
Type: cell-based
Experimental: We developed a mitogenic assay on cells responsive to FGF-2. The assay is run in the presence of a submaximal concentration of FGF-2 (10 ng/mL). […] At 72 h of incubation in the presence of 10 ng/mL of FGF-2, the addition of 10 μg/mL of heparin increased mitogenic activity by 58%.
Organic compounds of the invention may be assayed for their effect on FGF-2 stimulation of growth using this assay. […] For example, a “hit” can be defined as an increase in activity of >50%, in the presence of 10 ng/mL FGF-2 (with no added heparin).
The details of the assay are as follows.
1. Trypsinize cells. Remove a small aliquot of cell suspension for cell count and viability.
4. Transfer 80 μL of cell suspension to the appropriate wells of three 96-well tissue culture-treated plates.
5. Incubate plates at 37° C./5% CO2 for 18 hr.
Add 80 μL/well DMEM/0.1% BCS/1% Pen-Strep (0.1% BCS media), and incubate cells for 24 hr at 37° C./5% CO2.
A mass of 20 mg of heparin was dissolved in 2.0 mL of 0.1% BCS media for a final concentration of 10 mg/mL.
Preparation of 10× Heparin Solution: The 10 mg/mL heparin solution was diluted to 100 μg/mL by adding 50 μL of the 10 mg/mL solution to 4,950 μL of 0.1% BCS media.
A 1:10 intermediate dilution was prepared by adding 10 μL of 100 μg/mL FGF-2 stock to 90 μL of 1×PBS/0.5% BSA, for a final concentration of 10 μg/mL.
Preparation of 10×FGF-2: The 1:10 intermediate was further diluted by adding 50 μL to 4,950 μL of 0.1% BCS media, for a final concentration of 100 ng/mL. The 100 ng/mL FGF-2 solution was diluted by adding 500 μL to 4,500 μL of 0.1% BCS media, for a final concentration of 10 ng/mL.
6. 5× Heparin/FGF-2 Dilutions: Mix equal volumes of 10×FGF-2 (Steps 3 and 4) and 10× heparin stocks (Step 5) to create the 5× Treatment Intermediates as shown in Tables 3 and 4.
Add 20 μL of CellTiter AQueous One Solution to each of the treated wells.
Incubate for 1 hr at 37° C./5% CO2.

[1] = heparin 0.001 μg/mL, 1 ng/mL FGF-2, 24 hr
[2] = heparin 0.001 μg/mL, 1 ng/mL FGF-2, 48 hr
[3] = heparin 0.001 μg/mL, 1 ng/mL FGF-2, 72 hr
[4] = heparin 0.001 μg/mL, 10 ng/mL FGF-2, 24 hr
[5] = heparin 0.001 μg/mL, 10 ng/mL FGF-2, 48 hr
[6] = heparin 0.001 μg/mL, 10 ng/mL FGF-2, 72 hr
[7] = heparin 0.01 μg/mL, 1 ng/mL FGF-2, 24 hr
[8] = heparin 0.01 μg/mL, 1 ng/mL FGF-2, 48 hr
[9] = heparin 0.01 μg/mL, 1 ng/mL FGF-2, 72 hr
[10] = heparin 0.01 μg/mL, 10 ng/mL FGF-2, 24 hr
[11] = heparin 0.01 μg/mL, 10 ng/mL FGF-2, 48 hr
[12] = heparin 0.01 μg/mL, 10 ng/mL FGF-2, 72 hr
[13] = heparin 0.1 μg/mL, 1 ng/mL FGF-2, 24 hr
[14] = heparin 0.1 μg/mL, 1 ng/mL FGF-2, 48 hr
[15] = heparin 0.1 μg/mL, 1 ng/mL FGF-2, 72 hr
[16] = heparin 0.1 μg/mL, 10 ng/mL FGF-2, 24 hr
[17] = heparin 0.1 μg/mL, 10 ng/mL FGF-2, 48 hr
[18] = heparin 0.1 μg/mL, 10 ng/mL FGF-2, 72 hr
[19] = heparin 1 μg/mL, 1 ng/mL FGF-2, 24 hr
[20] = heparin 1 μg/mL, 1 ng/mL FGF-2, 48 hr
[21] = heparin 1 μg/mL, 1 ng/mL FGF-2, 72 hr
[22] = heparin 1 μg/mL, 10 ng/mL FGF-2, 24 hr
[23] = heparin 1 μg/mL, 10 ng/mL FGF-2, 48 hr
[24] = heparin 1 μg/mL, 10 ng/mL FGF-2, 72 hr
[25] = heparin 10 μg/mL, 1 ng/mL FGF-2, 24 hr
[26] = heparin 10 μg/mL, 1 ng/mL FGF-2, 48 hr
[27] = heparin 10 μg/mL, 1 ng/mL FGF-2, 72 hr
[28] = heparin 10 μg/mL, 10 ng/mL FGF-2, 24 hr
[29] = heparin 10 μg/mL, 10 ng/mL FGF-2, 48 hr
[30] = heparin 10 μg/mL, 10 ng/mL FGF-2, 72 hr

## FGF-2: basic fibroblast growth factor (bFGF, FGF-2), receptor-binding ligand
1 ng/mL FGF-2, 0 μg/mL heparin, 24 hr
  Mean OD490: 0.465
1 ng/mL FGF-2, 0 μg/mL heparin, 48 hr
  Mean OD490: 0.197
1 ng/mL FGF-2, 0 μg/mL heparin, 72 hr
  Mean OD490: 0.199
10 ng/mL FGF-2, 0 μg/mL heparin, 24 hr
  Mean OD490: 0.898
10 ng/mL FGF-2, 0 μg/mL heparin, 48 hr
  Mean OD490: 0.661
10 ng/mL FGF-2, 0 μg/mL heparin, 72 hr
  Mean OD490: 0.381
Assay control, 10 ng/mL FGF-2, 24 hr
  Mean OD490: 0.884
Assay control, 10 ng/mL FGF-2, 48 hr
  Mean OD490: 0.737
Assay control, 10 ng/mL FGF-2, 72 hr
  Mean OD490: 0.401

## Heparin
[1]
  Mean OD490: 0.477
  Percent Difference from 0 μg/mL Heparin Mean OD490: 2.6%
[2]
  Mean OD490: 0.222
  Percent Difference from 0 μg/mL Heparin Mean OD490: 12.7%
[3]
  Mean OD490: 0.208
  Percent Difference from 0 μg/mL Heparin Mean OD490: 4.5%
[4]
  Mean OD490: 0.912
  Percent Difference from 0 μg/mL Heparin OD490: 1.6%
[5]
  Mean OD490: 0.641
  Percent Difference from 0 μg/mL Heparin OD490: −3.0%
[6]
  Mean OD490: 0.416
  Percent Difference from 0 μg/mL Heparin OD490: 9.2%
[7]
  Mean OD490: 0.430
  Percent Difference from 0 μg/mL Heparin Mean OD490: −7.5%
[8]
  Mean OD490: 0.200
  Percent Difference from 0 μg/mL Heparin Mean OD490: 1.5%
[9]
  Mean OD490: 0.199
  Percent Difference from 0 μg/mL Heparin Mean OD490: 0.0%
[10]
  Mean OD490: 0.859
  Percent Difference from 0 μg/mL Heparin OD490: −4.3%
[11]
  Mean OD490: 0.641
  Percent Difference from 0 μg/mL Heparin OD490: −3.0%
[12]
  Mean OD490: 0.417
  Percent Difference from 0 μg/mL Heparin OD490: 9.4%
[13]
  Mean OD490: 0.419
  Percent Difference from 0 μg/mL Heparin Mean OD490: −9.9%
[14]
  Mean OD490: 0.226
  Percent Difference from 0 μg/mL Heparin Mean OD490: 14.7%
[15]
  Mean OD490: 0.199
  Percent Difference from 0 μg/mL Heparin Mean OD490: 0.0%
[16]
  Mean OD490: 0.863
  Percent Difference from 0 μg/mL Heparin OD490: −3.9%
[17]
  Mean OD490: 0.830
  Percent Difference from 0 μg/mL Heparin OD490: 25.6%
[18]
  Mean OD490: 0.459
  Percent Difference from 0 μg/mL Heparin OD490: 20.5%
[19]
  Mean OD490: 0.398
  Percent Difference from 0 μg/mL Heparin Mean OD490: −14.4%
[20]
  Mean OD490: 0.202
  Percent Difference from 0 μg/mL Heparin Mean OD490: 2.5%
[21]
  Mean OD490: 0.212
  Percent Difference from 0 μg/mL Heparin Mean OD490: 6.5%
[22]
  Mean OD490: 0.938
  Percent Difference from 0 μg/mL Heparin OD490: 4.5%
[23]
  Mean OD490: 0.978
  Percent Difference from 0 μg/mL Heparin OD490: 48.0%
[24]
  Mean OD490: 0.583
  Percent Difference from 0 μg/mL Heparin OD490: 53.0%
[25]
  Mean OD490: 0.433
  Percent Difference from 0 μg/mL Heparin Mean OD490: −6.9%
[26]
  Mean OD490: 0.196
  Percent Difference from 0 μg/mL Heparin Mean OD490: −0.5%
[27]
  Mean OD490: 0.188
  Percent Difference from 0 μg/mL Heparin Mean OD490: −5.5%
[28]
  Mean OD490: 1.071
  Percent Difference from 0 μg/mL Heparin OD490: 19.3%
[29]
  Mean OD490: 0.992
  Percent Difference from 0 μg/mL Heparin OD490: 50.1%
[30]
  Mean OD490: 0.602
  Percent Difference from 0 μg/mL Heparin OD490 (increase in mitogenic activity): 58.0%
Heparin 10 μg/mL, 10 ng/mL FGF-2, 72 hr, listed as heparin
  Percent Difference from 0 μg/mL Heparin OD490 (increase in mitogenic activity): 58%
Increasing concentrations of heparin, FIG. 18
  FGF-2 activity in the presence of heparin: increased with increasing concentrations of heparin
